# Measured values reported in patent EP4745134A1 (Jiangsu Yahong Meditech Co., Ltd., priority 2023, dated 2025).
# pIC50: −log10 of the molar value.
# Assays:
# HCT116-WT cells = assay: Inhibitory activity against cell proliferation (CellTiter Glo, 6 days), HCT116-WT; assay type: cell-based; settings: 144 h, HCT116-WT cells, 6 days, CellTiter Glo; read-out: HCT116-WT IC50
# Method in brief: (§1)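 Following overnight attachment of 250 cells per well in McCoy's 5A medium with 10% FBS, compounds spanning 8 concentrations (4-fold, top 10000 nM) were applied for 6 days. Growth inhibition IC50 was derived from luminescent ATP signal.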
# PRMT5-MTA = PRMT5-MTA (Homo sapiens, UniProt O14744); assay: Enzymatic inhibitory activity against PRMT5-MTA (AlphaScreen); assay type: biochemical; settings: read-out: IC50
# Sequence of PRMT5-MTA (O14744 whole entry): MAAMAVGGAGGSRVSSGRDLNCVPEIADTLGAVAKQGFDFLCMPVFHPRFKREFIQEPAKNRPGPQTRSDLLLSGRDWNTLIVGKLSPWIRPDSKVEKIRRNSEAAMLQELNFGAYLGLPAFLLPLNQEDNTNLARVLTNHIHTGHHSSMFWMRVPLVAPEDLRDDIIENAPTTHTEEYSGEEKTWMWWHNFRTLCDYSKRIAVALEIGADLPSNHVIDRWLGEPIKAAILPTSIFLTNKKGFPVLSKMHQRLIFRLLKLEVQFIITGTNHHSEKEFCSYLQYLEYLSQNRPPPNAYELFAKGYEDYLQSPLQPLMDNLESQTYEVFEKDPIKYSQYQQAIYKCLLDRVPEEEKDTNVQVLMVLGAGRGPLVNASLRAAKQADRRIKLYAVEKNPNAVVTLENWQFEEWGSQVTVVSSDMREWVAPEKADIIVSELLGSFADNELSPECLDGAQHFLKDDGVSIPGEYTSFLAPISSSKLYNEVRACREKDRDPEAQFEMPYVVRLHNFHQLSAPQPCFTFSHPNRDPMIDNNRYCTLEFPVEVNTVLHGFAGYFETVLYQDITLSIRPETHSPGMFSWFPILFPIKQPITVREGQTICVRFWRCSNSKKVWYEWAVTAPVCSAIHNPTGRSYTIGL
# Sequence of PRMT5-MTA (Q9BQA1 whole entry partner): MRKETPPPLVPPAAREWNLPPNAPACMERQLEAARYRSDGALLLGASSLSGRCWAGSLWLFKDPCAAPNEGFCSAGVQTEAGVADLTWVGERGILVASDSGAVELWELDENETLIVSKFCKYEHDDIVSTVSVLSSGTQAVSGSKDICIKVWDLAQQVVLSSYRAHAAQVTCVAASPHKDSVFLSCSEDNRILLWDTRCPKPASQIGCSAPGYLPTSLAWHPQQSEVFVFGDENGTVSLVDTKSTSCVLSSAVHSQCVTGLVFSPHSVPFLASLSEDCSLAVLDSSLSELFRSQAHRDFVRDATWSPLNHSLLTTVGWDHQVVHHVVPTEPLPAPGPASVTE
# Method in brief: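 PRMT5/[…] (1 nM) was preincubated for 30 min at room temperature with 1 µM […] and 2.5 µM SAM, then exposed to compound (10-point, 3-fold from 1000 nM) for 15 min at 23 °C. Histone H4 substrate (5 nM) was added and reacted for 45 min at 23 °C. Symmetric dimethyl-R3 H4 was detected by AlphaScreen and IC50 calculated.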
# HCT116 MTAP KO cells = assay: Inhibitory activity against cell proliferation (CellTiter Glo, 6 days), HCT116 MTAP KO; assay type: cell-based; settings: for pIC50: Homo sapiens, HCT-116, 144 h, HCT116 MTAP KO cells, 6 days, CellTiter Glo, read-out: HCT116 MTAP KO IC50; for Selectivity HCT 116-WT/ HCT116 MTAP KO: ratio of IC50 HCT116-WT / HCT116 MTAP KO
# Method in brief: as §1
SMILES,pIC50 (HCT116-WT cells),pIC50 (PRMT5-MTA),pIC50 (HCT116 MTAP KO cells),Selectivity HCT 116-WT/ HCT116 MTAP KO (HCT116 MTAP KO cells)
"Cc1cc2nc(N)c3cnn(C)c3c2cc1C(=O)N1CC2(CC2)CN1c1ncccc1F [Example 366, (4-amino-1,7-dimethyl-1H-pyrazolo[4,3-c]quinolin-8-yl)(6-(3-fluoropyridin-2-yl)-5,6-diazaspiro[2.4]heptan-5-yl)methanone]",6.50,8.10,8.11,41.43
"CC1CN(C(=O)c2ccc3nc(N)c4cnn(C)c4c3c2)N(c2ncccc2F)C1 (stereo not drawn) [Example 367, (4-amino-1-methyl-1H-pyrazolo[4,3-c]quinolin-8-yl)(2-(3-fluoropyridin-2-yl)-4-methylpyrazolidin-1-yl)methanone]",5.28,8.39,6.97,49.62
"Cc1cc2nc(N)c3cnn(C)c3c2cc1C(=O)N1CC(C)CN1c1ccccn1 (stereo not drawn) [Example 368, (4-amino-1,7-dimethyl-1H-pyrazolo[4,3-c]quinolin-8-yl)(4-methyl-2-(pyridin-2-yl)pyrazolidin-1-yl)methanone]",5.54,8.33,7.43,78.51
"Cc1cc2nc(N)c3cnn(C)c3c2cc1C(=O)N1CC(C)CN1c1ncccc1Cl (stereo not drawn) [Example 369, (4-amino-1,7-dimethyl-1H-pyrazolo[4,3-c]quinolin-8-yl)(2-(3-chloropyridin-2-yl)-4-methylpyrazolidin-1-yl)methanone]",5.57,8.41,7.08,32.12
"Cc1cc2nc(N)c3cnn(C)c3c2cc1C(=O)N1CC(C)CN1c1ncccc1Br (stereo not drawn) [Example 370, (4-amino-1,7-dimethyl-1H-pyrazolo[4,3-c]quinolin-8-yl)(2-(3-bromopyridin-2-yl) -4-methylpyrazolidin-1-yl)methanone]",5.46,8.24,6.93,29.42
"Cc1cc2nc(N)c3cnn(C)c3c2cc1C(=O)N1CC(C)CN1c1cc(F)ccn1 (stereo not drawn) [Example 372, (4-amino-1,7-dimethyl-1H-pyrazolo[4,3-c]quinolin-8-yl)(2-(4-fluoropyridin-2-yl)-4-methylpyrazolidin-1-yl)methanone]",5.60,8.47,7.08,30.42
"Cc1cc2nc(N)c3cnn(C)c3c2cc1C(=O)N1CCC(C)N1c1ncccn1 (stereo not drawn) [Example 374, (4-amino-1,7-dimethyl-1H-pyrazolo[4,3-c]quinolin-8-yl)(3-methyl-2-(pyrimidin-2-yl)pyrazolidin-1-yl)methanone]",< 5.00,8.09,6.68,
"Cc1cc2nc(N)c3cnn(C)c3c2cc1C(=O)N1CCCN1c1ccc(C(F)(F)F)cc1 [Example 377, (4-amino-1,7-dimethyl-1H-pyrazolo[4,3-c]quinolin-8-yl)(2-(4-(trifluoromethyl)phenyl)pyrazolidin-1-yl)methanone]",5.37,8.51,6.51,13.85
"Cc1cc2nc(N)c3cnn(C)c3c2cc1C(=O)N1CC(C)CN1c1ccccc1C(F)(F)F (stereo not drawn) [Example 378, (4-amino-1,7-dimethyl-1H-pyrazolo[4,3-c]quinolin-8-yl)(4-methyl-2-(2-(trifluoromethyl)phenyl)pyrazolidin-1-yl)methanone]",5.17,8.18,6.50,21.39
"Cc1cc2nc(N)c3cnn(C)c3c2cc1C(=O)N1CC(C)CN1c1ccncc1F (stereo not drawn) [Example 379, (4-amino-1,7-dimethyl-1H-pyrazolo[4,3-c]quinolin-8-yl)(2-(3-fluoropyridin-4-yl)-4-methylpyrazolidin-1-yl)methanone]",5.74,8.11,7.40,45.38
